# Patent US8097440B1, “Engineered microorganisms capable of producing target compounds under anaerobic conditions” (Gevo, Inc., priority 2008, dated 2012)
# How the values were obtained:
# [1] = target: T1, E. coli KARI Ec_IlvC variant Ec_IlvC^Q110A-his6 (Q110A), SEQ ID NO: 21 (Escherichia coli, UniProt P05793, Q110A); test: KARI cuvette assay, purified Ec_IlvC^Q110A-his6; type: biochemical; conditions: relative to Ec_IlvC^his6 with NADPH
# T1 sequence (P05793 with tags, fused parts or gaps Q110A): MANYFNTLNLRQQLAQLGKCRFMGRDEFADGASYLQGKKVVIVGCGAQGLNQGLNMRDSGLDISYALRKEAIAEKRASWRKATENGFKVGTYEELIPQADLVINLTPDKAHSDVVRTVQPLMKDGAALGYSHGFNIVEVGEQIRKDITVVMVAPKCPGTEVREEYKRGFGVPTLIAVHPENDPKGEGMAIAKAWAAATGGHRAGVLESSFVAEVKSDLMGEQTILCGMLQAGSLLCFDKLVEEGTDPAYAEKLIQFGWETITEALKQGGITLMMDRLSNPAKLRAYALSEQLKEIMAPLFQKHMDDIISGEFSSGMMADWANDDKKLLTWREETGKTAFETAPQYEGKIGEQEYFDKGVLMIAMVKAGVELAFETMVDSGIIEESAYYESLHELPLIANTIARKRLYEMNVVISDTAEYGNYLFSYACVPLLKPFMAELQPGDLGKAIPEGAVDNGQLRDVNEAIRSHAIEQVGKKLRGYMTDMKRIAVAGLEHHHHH
# Method: (§1) KARI cuvette assay: KARI activity was assayed kinetically by monitoring the decrease in NAD(P)H concentration by measuring the absorbance at 340 nm. A reaction buffer was prepared containing 250 mM potassium phosphate pH 7, 1 mM DTT and 10 mM MgCl2. Cell pellets were resuspended (0.25 g wet weight/mL buffer) in 250 mM potassium phosphate (KPi) buffer containing 1 mM DTT and 10 mM MgCl2. The resuspended cells were lysed by sonication for 1 min with a 50% duty cycle and pelleted at 11000×g and 4° C. for 15 min. A reaction mixture consisting of 910 μl reaction buffer, 50 μl acetolactate, and 20 μl lysate was prepared in a cuvette. The reaction was initiated by addition of 20 μL of 10 mM NAD(P)H. A substrate free control was conducted using reaction buffer without the addition of acetolactate.
# Purification of KARI: Cell pellets used for purification were resuspended in purification buffer A (20 mM Tris, 20 mM imidazol, 100 mM NaCl, 10 mM MgCl2, pH 7.4). KARI was purified by IMAC (Immobilized metal affinity chromatography) over a 1 ml Histrap High Performance (histrap HP) column pre-charged with Nickel (GE Healthcare) using an Akta FPLC system (GE Healthcare). […]
# [2] = target: T2, Escherichia coli KARI (ketol-acid reductoisomerase) Ec_IlvC^his6, wild type IlvC (SEQ ID NO: 13) with his6-tag, SEQ ID NO: 15 (Escherichia coli, UniProt P05793); test: KARI cuvette assay, purified Ec_IlvC^his6 (parent / wild type); type: biochemical, E. coli; conditions: relative to Ec_IlvC^his6 with NADPH
# T2 sequence (P05793 with tags, fused parts or gaps): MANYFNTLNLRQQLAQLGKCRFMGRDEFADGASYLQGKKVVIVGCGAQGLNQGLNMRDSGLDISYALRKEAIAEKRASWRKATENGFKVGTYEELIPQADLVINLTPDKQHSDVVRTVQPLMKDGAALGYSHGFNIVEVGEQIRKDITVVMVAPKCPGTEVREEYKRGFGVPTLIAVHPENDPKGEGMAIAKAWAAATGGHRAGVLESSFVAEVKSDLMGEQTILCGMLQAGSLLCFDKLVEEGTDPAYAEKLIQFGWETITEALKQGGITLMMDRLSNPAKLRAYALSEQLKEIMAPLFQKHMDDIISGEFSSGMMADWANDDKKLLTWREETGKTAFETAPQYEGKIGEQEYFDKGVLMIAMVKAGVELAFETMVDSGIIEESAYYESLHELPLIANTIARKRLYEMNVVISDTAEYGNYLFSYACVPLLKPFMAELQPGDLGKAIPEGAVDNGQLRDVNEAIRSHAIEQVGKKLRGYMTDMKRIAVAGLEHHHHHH
# Method: as §1, with “The reaction was initiated by addition of 20 μL of 10 mM NAD(P)H. A substrate free control was conducted using reaction buffer without the addition of acetolactate.” left out
# Only 20% of the enzymes of the recombination library were active on NADH. After screening 1,000 clones using the NADH depletion assay at 340 nm, 26 KARI variants were selected for a rescreen by the high-throughput assay described in Example 14 and eight thereof were expressed in 25 ml LBamp medium in shake flasks according to the protocol for cell growth and protein expression in shake flasks as described in Example 14, purified according to the protocol for purification of KARI enzymes as described in Example 14, and NAD(P)H depletion at 340 nm was measured again. […] The KM values of variants Ec_llvC^2H10-his6 and Ec_llvC^6E6-his6 were measured and the catalytic efficiencies were calculated.
smiles,measurement,setting,value
"NC(=O)C1=CN([C@@H]2O[C@H](COP(=O)(O)OP(=O)(O)OC[C@H]3O[C@@H](n4cnc5c(N)ncnc54)[C@H](O)[C@@H]3O)[C@@H](O)[C@H]2O)C=CC1 [NADH, nicotinamide adenine dinucleotide]",(kcat/KM with NADH)/(kcat/KM of Ec_IlvC^his6 with NADPH),[1],13%
same,(kcat/KM with NADH)/(kcat/KM of Ec_IlvC^his6 with NADPH),[2],1%
